According to the supplement of paper PMC10331698:
± gives the standard deviation of the averaged measurements.

Assays:
Experiment in all cases: level (log10 ratio to DMSO vehicle control); higher = higher biomarker level / cell amount than vehicle control
[1] = compound: O=S(=O)(O)C(F)(F)C(F)(F)OC(F)(F)C(F)(F)F [Perfluoro(2-ethoxyethane)sulfonic acid] (in DMSO)
Procedure: (§1)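 BioMAP Diversity Plus panel of 12 human primary cell co-culture systems (3C, 4H, LPS, SAg, BT, BF4T, BE3C, CASM3C, HDF3CGF, KF3CT, MyoF, Mphg). Compounds were added 1 h before stimulation and left for 24 h (MyoF 48 h; BT 72 h for soluble read-outs or 6 d for IgG). Biomarkers were read by ELISA, cytotoxicity by SRB, PBMC viability and proliferation by Alamar Blue. Each well value was divided by the mean of 8 DMSO control wells on the same plate and log10 transformed; duplicate blinded samples were tested at 4 concentrations.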

Perfluoroundecanoic acid = compound: O=C(O)C(F)(F)C(F)(F)C(F)(F)C(F)(F)C(F)(F)C(F)(F)C(F)(F)C(F)(F)C(F)(F)C(F)(F)F [Perfluoroundecanoic acid] (in DMSO); conditions: 6700 nM
Procedure: as §1

[2] = compound: O=C(O)C(F)(F)OC(F)(F)C(F)(F)OC(F)(F)C(F)(F)OC(F)(F)C(F)(F)C(F)(F)C(F)(F)F [Perfluoro-3,6,9-trioxatridecanoic acid] (in DMSO); conditions: 6700 nM
Procedure: as §1

[3] = compound: O=C(O)C(F)(F)C(F)(F)C(F)(F)OC(F)(F)F [Perfluoro(4-methoxybutanoic) acid] (in DMSO)
Procedure: as §1

[4] = compound: OCCC(F)(F)C(F)(F)C(F)(F)C(F)(F)F [4:2 Fluorotelomer alcohol] (in DMSO)
Procedure: as §1

[5] = compound: C=C(C)C(=O)OCCC(F)(F)C(F)(F)C(F)(F)C(F)(F)C(F)(F)C(F)(F)C(F)(F)C(F)(F)F [8:2 Fluorotelomer methacrylate] (in DMSO)
Procedure: as §1

[6] = compound: OCC(F)(F)C(F)(F)C(F)(F)C(F)F [1H,1H,5H-Perfluoropentanol] (in DMSO)
Procedure: as §1

[7] = compound: O=C(O)C=C(C(F)(F)F)C(F)(F)F [3,3-Bis(trifluoromethyl)-2-propenoic acid] (in DMSO)
Procedure: as §1

Test System	level (log10) ([1]; 6700 nM)	level (log10) ([1]; 20000 nM)	level (log10) ([1]; 60000 nM)	level (log10) (Perfluoroundecanoic acid)	level (log10) [2]	level (log10) ([3]; 6700 nM)	level (log10) ([3]; 20000 nM)	level (log10) ([3]; 60000 nM)	level (log10) ([4]; 6700 nM)	level (log10) ([4]; 20000 nM)	level (log10) ([4]; 60000 nM)	level (log10) ([5]; 6700 nM)	level (log10) ([5]; 20000 nM)	level (log10) ([6]; 6700 nM)	level (log10) ([6]; 20000 nM)	level (log10) ([6]; 60000 nM)	level (log10) ([7]; 6700 nM)	level (log10) ([7]; 20000 nM)	level (log10) ([7]; 60000 nM)
BT:sIL-17A	-0.0995 ± 0.17	-0.131 ± 0.05	-0.148 ± 0.19	-0.06 ± 0.25	0.0515 ± 0.14	-0.082 ± 0.0028	-0.0755 ± 0.083	0.0425 ± 0.16	-0.007 ± 0.21	-0.043 ± 0.11	-0.037 ± 0.18	0.077 ± 0.13	0.041 ± 0.16	-0.0225 ± 0.086	0.044	-0.0225 ± 0.25	0.0535 ± 0.043	-0.246 ± 0.1	-0.482 ± 0.0028
BT:sIL-17F	-0.0315 ± 0.022	-0.071 ± 0.031	-0.0005 ± 0.021	-0.0225 ± 0.056	0.018 ± 0.027	-0.0085 ± 0.059	0.07 ± 0.017	-0.037 ± 0.073	0.0025 ± 0.03	0.075 ± 0.055	0.0675 ± 0.14	0.032 ± 0.037	0.1 ± 0.023	-0.0035 ± 0.067	-0.051 ± 0.035	-0.013 ± 0.25	-0.258 ± 0.031	-0.426 ± 0.16	-0.672 ± 0.021
BT:sTNF-alpha	-0.002 ± 0.037	-0.012 ± 0.083	0.029 ± 0.058	0.06 ± 0.02	-0.0035 ± 0.057	-0.028 ± 0.0042	-0.0245 ± 0.046	0.0445 ± 0.016	0.126 ± 0.061	0.0895 ± 0.077	0.143 ± 0.14	-0.031 ± 0.055	-0.049 ± 0.0042	-0.0315 ± 0.0092	-0.051 ± 0.016	-0.003 ± 0.068	-0.047 ± 0.034	-0.184 ± 0.04	-0.637 ± 0.093
LPS:CCL2/MCP-1	0.012 ± 0.0057	0.021 ± 0.0071	0.032 ± 0.035	0.0015 ± 0.0078	-0.0325 ± 0.023	0.004 ± 0.013	-0.001 ± 0.024	0.025 ± 0.058	-0.0125 ± 0.021	-0.0095 ± 0.00071	0.019 ± 0.0057	-0.0045 ± 0.047	0.042 ± 0.0085	-0.006 ± 0.0071	0.004 ± 0.014	0.007 ± 0.04	0.0015 ± 0.00071	-0.0145 ± 0.0035	-0.02 ± 0.03
LPS:CD40	0.0515 ± 0.016	0.022 ± 0.0028	0.047 ± 0.016	-0.019 ± 0.05	-0.015 ± 0.024	-0.0385 ± 0.06	0 ± 0.055	-0.0465 ± 0.094	-0.008 ± 0.016	-0.041 ± 0.014	-0.032	0.0345 ± 0.0092	-0.028 ± 0.11	-0.017 ± 0.016	-0.0085 ± 0.005	0.0145 ± 0.015	-0.055 ± 0.024	-0.061 ± 0.047	-0.184
LPS:CD62E/E-Selectin	0.0105 ± 0.022	0.0215 ± 0.019	0.0275 ± 0.0078	-0.014 ± 0.016	-0.024 ± 0.0057	-0.009 ± 0.0099	-0.007 ± 0.014	-0.002	0.002 ± 0.023	-0.0195 ± 0.012	-0.0045 ± 0.03	0.028 ± 0.0014	0.027 ± 0.035	-0.0165 ± 0.00071	0.0125 ± 0.0064	0.0055 ± 0.022	-0.013 ± 0.021	-0.025 ± 0.0071	-0.0345 ± 0.005
LPS:CD69	0.0305 ± 0.04	-0.007 ± 0.027	-0.023 ± 0.068	-0.0585 ± 0.05	0.013 ± 0.0014	0.02 ± 0.11	0.0405 ± 0.12	0.0255 ± 0.086	-0.0295 ± 0.025	-0.0135 ± 0.015	-0.0105 ± 0.025	-0.0425 ± 0.04	-0.0355 ± 0.05	-0.02 ± 0.011	-0.0015 ± 0.013	0.0175 ± 0.0078	-0.072 ± 0.02	-0.0565 ± 0.057	-0.028 ± 0.09
LPS:CD106/VCAM-1	0.013 ± 0.034	-0.007 ± 0.033	0.0165 ± 0.049	-0.0095 ± 0.043	0.001 ± 0.016	-0.019 ± 0.02	-0.005 ± 0.025	-0.0155 ± 0.019	-0.017 ± 0.014	-0.0145 ± 0.005	0.0075 ± 0.00071	-0.032 ± 0.054	-0.0515 ± 0.049	0.007 ± 0.014	-0.008 ± 0.0042	0.0095 ± 0.0035	-0.106 ± 0.021	-0.141 ± 0.018	-0.244 ± 0.069
LPS:CD141/Thrombomodulin	0.067 ± 0.0085	0.057 ± 0.055	0.051 ± 0.072	0.018 ± 0.016	-0.015 ± 0.0028	-0.028 ± 0.023	-0.0285 ± 0.052	-0.0195 ± 0.053	-0.037 ± 0.034	0.0025 ± 0.03	-0.005 ± 0.02	-0.021 ± 0.038	-0.064 ± 0.0099	-0.0125 ± 0.0035	0.008 ± 0.02	0.023 ± 0.0099	-0.0835 ± 0.093	-0.091 ± 0.14	-0.026 ± 0.12
LPS:CD142/Tissue Factor	0.0685 ± 0.042	0.1 ± 0.057	0.0485 ± 0.093	-0.023 ± 0.014	-0.091 ± 0.021	-0.0085 ± 0.066	-0.012 ± 0.054	0.016 ± 0.051	-0.0015 ± 0.0064	-0.025 ± 0.047	0.0235 ± 0.016	0.0615 ± 0.063	0.0315 ± 0.083	-0.001 ± 0.021	0.017 ± 0.03	0.023 ± 0.021	0.0165 ± 0.064	-0.023 ± 0.12	-0.036 ± 0.12
LPS:CXCL8/IL-8	0.0585 ± 0.025	0.108 ± 0.07	0.21 ± 0.04	-0.04 ± 0.035	-0.0465 ± 0.061	-0.0075 ± 0.05	0.0075 ± 0.049	0.0545 ± 0.005	-0.0255 ± 0.015	-0.0005 ± 0.0078	-0.005 ± 0.024	-0.037 ± 0.05	-0.0225 ± 0.076	0.004 ± 0.0057	0.0185 ± 0.005	0.001 ± 0.025	-0.052 ± 0.0099	-0.047 ± 0.037	-0.007 ± 0.069
LPS:IL-1alpha	0.026 ± 0.025	0.044 ± 0.016	0.011 ± 0.027	-0.103 ± 0.019	-0.038 ± 0.013	-0.023 ± 0.013	-0.0195 ± 0.04	0.0005 ± 0.09	-0.039 ± 0.055	-0.0135 ± 0.0021	-0.0205 ± 0.0078	0.074 ± 0.0057	0.0625 ± 0.077	-0.048 ± 0.021	-0.0295 ± 0.0064	-0.003 ± 0.0099	-0.0355 ± 0.015	-0.0495 ± 0.023	-0.095 ± 0.02
LPS:M-CSF	-0.0095 ± 0.059	0.026 ± 0.028	-0.0085 ± 0.032	0.049 ± 0.0028	0.009 ± 0.018	-0.014 ± 0.014	-0.024	-0.008 ± 0.011	-0.041 ± 0.027	0.005 ± 0.057	0.029 ± 0.044	-0.019 ± 0.021	-0.0635 ± 0.00071	-0.01 ± 0.0014	-0.0015 ± 0.029	0.0125 ± 0.049	-0.071 ± 0.082	-0.155 ± 0.13	-0.203 ± 0.13
LPS:SRB	-0.0175 ± 0.0021	-0.012	-0.0145 ± 0.0064	0.005 ± 0.0057	0.008 ± 0.0071	-0.0085 ± 0.00071	-0.008 ± 0.0071	-0.0085 ± 0.0035	-0.012 ± 0.0057	-0.0145 ± 0.0092	-0.006 ± 0.0014	-0.0085 ± 0.016	-0.0005 ± 0.023	-0.017 ± 0.0014	-0.0115 ± 0.00071	-0.0005 ± 0.0078	-0.006 ± 0.0071	-0.024 ± 0.0085	-0.044 ± 0.0057
